PMC7180572, “5-Alkylamino-N-phenylpyrazine-2-carboxamides: Design, Preparation, and Antimycobacterial Evaluation” (Molecules, 2020)
Converted amounts (≈) assume the structure as drawn. Read-outs that look alike come from different tables or passages of the source.

Key:
[1] = test system: Mycobacterium aurum DSM 43999 (ATCC 23366); test: Microdilution broth, modified Microplate Alamar Blue Assay, whole cell growth inhibition; type: cell-based; details: Mycolicibacterium aurum, read-out: MIC Mycobacterium aurum
[2] = test system: Staphylococcus aureus methicillin resistant ATCC 43300, CCM 4750; test: microbe, parasite or virus in culture; type: cell-based
[3] = test system: Candida krusei ATCC 6258, CCM 8271; test: Antifungal microdilution broth method (EUCAST); type: cell-based; details: Pichia kudriavzevii
[4] = test system: Trichophyton interdigitale ATCC 9533, CCM 8377; test: Antifungal microdilution broth method (EUCAST); type: cell-based; details: read-out: MIC TI
[5] = test system: Klebsiella pneumoniae ATCC 10031, CCM 4415; test: Antibacterial microdilution broth method (EUCAST)
[6] = test system: M. kansasii CNCTC My 235/80 (ATCC 12478); test: 96 well plate microdilution broth method with Alamar Blue; type: cell-based; details: Mycobacterium kansasii
[7] = test system: Mycobacterium tuberculosis H37Ra ITM-M006710 (ATCC 9431); test: Microdilution broth, modified Microplate Alamar Blue Assay, whole cell growth inhibition; type: cell-based; details: Mycobacterium tuberculosis, read-out: MIC Mtb H37Ra
[8] = test system: Candida albicans ATCC 24433, CCM 8320; test: Antifungal microdilution broth method (EUCAST); type: cell-based
[9] = test system: Absidia corymbifera CCM 8077 (Lichtheimia corymbifera); test: Antifungal microdilution broth method (EUCAST); type: cell-based; details: read-out: MIC AC
[10] = test system: Candida tropicalis ATCC 750, CCM 8264; test: Antifungal microdilution broth method (EUCAST); type: cell-based; details: read-out: MIC CT
[11] = test system: Staphylococcus epidermidis ATCC 12228, CCM 4418; test: Antibacterial microdilution broth method (EUCAST); type: cell-based
[12] = test system: M. avium ssp. avium CNCTC My 80/72 (ATCC 15769); test: 96 well plate microdilution broth method with Alamar Blue; type: cell-based; details: Mycobacterium avium
[13] = test system: Mycobacterium smegmatis DSM 43465 (ATCC 607); test: Microdilution broth, modified Microplate Alamar Blue Assay, whole cell growth inhibition; type: cell-based; details: Mycolicibacterium smegmatis, read-out: MIC Mycobacterium smegmatis
[14] = test system: Staphylococcus aureus spp.aureus ATCC 29213, CCM 4223; test: Antibacterial microdilution broth method (EUCAST); type: cell-based
[15] = test system: Enterococcus faecalis ATCC 29212, CCM 4224; test: Antibacterial microdilution broth method (EUCAST); type: cell-based
[16] = test system: Aspergillus flavus CCM 8363; test: Antifungal microdilution broth method (EUCAST); type: cell-based; details: read-out: MIC AFla
[17] = test system: HepG2 cells; test: HepG2 cytotoxicity, CellTiter 96 (MTS) assay; type: cell-based, human; details: for IC50: Homo sapiens, read-out: HepG2 IC50; for SI, selectivity index: IC50 (HepG2)/MIC against Mtb H37Ra (in µM)
[18] = test system: Acinetobacter baumanii ATCC 19606, DSM 30007; test: Antibacterial microdilution broth method (EUCAST); type: cell-based; details: Acinetobacter baumannii
[19] = test system: Pseudomonas aeruginosa ATCC 27853, CCM 3955; test: Antibacterial microdilution broth method (EUCAST); type: cell-based
[20] = test system: Aspergillus fumigatus ATCC 204305; test: Antifungal microdilution broth method (EUCAST); type: cell-based; details: read-out: MIC AF
[21] = test system: Escherichia coli ATCC 25922, CCM 3954; test: Antibacterial microdilution broth method (EUCAST); type: cell-based
[22] = test system: Candida parapsilosis ATCC 22019, CCM 8260; test: Antifungal microdilution broth method (EUCAST); type: cell-based; details: Lodderomyces parapsilosis
[23] = test system: Serratia marcescens; test: Antibacterial microdilution broth method (EUCAST); type: cell-based; details: 48 h, standards, read-out: MIC against Serratia marcescens
[24] = type: physicochemical
Description: As a complementary test, final compounds were tested for in vitro activity against selected fungal and bacterial pathogens of clinical importance. The microdilution broth method was performed according to The European Committee on Antimicrobial Susceptibility Testing (EUCAST) instructions with slight modifications. The minimum inhibitory concentration was expressed in µM. Not all compounds were evaluated due to the fact of a problem with solubility which occurred for 18 samples. […] See Supplementary Materials for the list of tested strains, methodology, and full results.

[25] = ATCC 43300 / CCM 4750 / MRSA, 24 h, read-out: MIC MRSA
[26] = ATCC 43300 / CCM 4750 / MRSA, 48 h, read-out: MIC MRSA
[27] = read-out: MIC CK (Candida krusei)
[28] = ATCC12478, pH 6.6, read-out: MIC Mycobacterium kansasii
[29] = in vitro, Middlebrook 7H9 broth, resazurin
[30] = read-out: MIC CA (Candida albicans)
[31] = ATCC15769, pH 6.6, read-out: MIC Mycobacterium avium
[32] = read-out: MIC CP (Candida parapsilosis)

For `CCCCCNc1cnc(C(=O)Nc2ccc(O)cc2)cn1` [Compound 3c, N-(4-hydroxyphenyl)-5-(pentylamino)pyrazine-2-carboxamide], the MIC [1] was ≥ 500 µg/mL, the MIC [2, 25] was > 125 µM and the MIC [2, 26] was > 125 µM. The MIC ([3]; 24 h, read-out: MIC CK) was > 125 µM, the MIC ([3]; 48 h, read-out: MIC CK) was > 125 µM and the MIC [3, 27] was > 125 µM. The MIC ([4]; 72 h) was > 125 µM, the MIC ([4]; 120 h) was > 125 µM and the “MIC KP” value ([5]; 24h) was > 125 µM. The “MIC KP” value ([5]; 48h) was > 125 µM, the MIC [6, 28] was 12.5 µg/mL (≈ 41.6 µM) and the MIC ([7]; MIC converted to µM) was 13 µM. It also gave an MIC [7, 29] of 3.91 µg/mL, an MIC ([8]; 24 h, read-out: MIC CA) of 62.5 µM (≈ 18.8 µg/mL) and an MIC ([8]; 48 h, read-out: MIC CA) of 62.5 µM (≈ 18.8 µg/mL). For the same compound, the MIC [8, 30] was 62.5 µM (≈ 18.8 µg/mL), the MIC ([9]; CCM8077, 24 h) was > 125 µM and the MIC ([9]; CCM8077, 48 h) was > 125 µM. For the same compound, the MIC ([10]; 24 h) was > 125 µM, the MIC ([10]; 48 h) was > 125 µM and the MIC ([11]; 24 h, read-out: MIC SE) was > 125 µM. The MIC ([11]; 48 h, read-out: MIC SE) was > 125 µM, the MIC [12, 31] was 50 µg/mL (≈ 166 µM) and the MIC [13] was 31.2 µg/mL (≈ 104 µM). The MIC ([14]; 24 h, read-out: MIC SA) was > 125 µM, the MIC ([14]; 48 h, read-out: MIC SA) was > 125 µM and the MIC ([15]; 24 h, read-out: MIC EF) was > 125 µM. For the same compound, the MIC ([15]; 48 h, read-out: MIC EF) was > 125 µM, the MIC ([16]; CCM8363, 24 h) was > 125 µM and the MIC ([16]; CCM8363, 48 h) was > 125 µM. For the same compound, the “HepG2 IC50” value ([17]; 24 h incubation, > means higher concentration not reproducible due to precipitation) was “above the tested range of concentrations”, the IC50 ([17]; HepG2, 24 h) was > 500 µM and the “SI, selectivity index” value [17] was >38.4. For the same compound, the MIC ([18]; 24h) was > 125 µM, the MIC ([18]; 48h) was > 125 µM and the MIC ([19]; 72 h, read-out: MIC PA) was > 125 µM. For the same compound, the MIC ([19]; 120 h, read-out: MIC PA) was > 125 µM, the MIC ([20]; ATCC204305, 24 h) was > 125 µM and the MIC ([20]; ATCC204305, 48 h) was > 125 µM. For the same compound, the MIC ([21]; 24 h, read-out: MIC EC) was > 125 µM, the MIC ([21]; 48 h, read-out: MIC EC) was > 125 µM and the melting point was 162.6 to 166.8 °C. For the same compound, the MIC ([22]; 24 h, read-out: MIC CP) was > 125 µM, the MIC ([22]; 48 h, read-out: MIC CP) was > 125 µM and the MIC [22, 32] was > 125 µM.

With `CCCCCCNc1cnc(C(=O)Nc2ccc(C)cc2)cn1` [Compound 4d, 5-(Hexylamino)-N-(p-tolyl)pyrazine-2-carboxamide] the MIC [1] was ≥ 500 µg/mL, the MIC [2, 25] was > 500 µM and the MIC [2, 26] was > 500 µM. For the same compound, the MIC ([3]; 24 h, read-out: MIC CK) was 125 µM (≈ 39.1 µg/mL), the MIC ([3]; 48 h, read-out: MIC CK) was 125 µM (≈ 39.1 µg/mL) and the MIC [3, 27] was 125 µM (≈ 39.1 µg/mL). For the same compound, the MIC ([4]; 72 h) was > 125 µM, the MIC ([4]; 120 h) was > 125 µM and the “MIC KP” value ([5]; 24h) was > 500 µM. For the same compound, the “MIC KP” value ([5]; 48h) was > 500 µM, the MIC [6, 28] was 12.5 µg/mL (≈ 40 µM) and the MIC ([7]; MIC converted to µM) was 4.99 µM. For the same compound, the MIC [7, 29] was 1.56 µg/mL, the MIC ([8]; 24 h, read-out: MIC CA) was > 125 µM and the MIC ([8]; 48 h, read-out: MIC CA) was > 125 µM. The MIC [8, 30] was > 125 µM, the MIC ([9]; CCM8077, 24 h) was > 125 µM and the MIC ([9]; CCM8077, 48 h) was > 125 µM. The MIC ([10]; 24 h) was > 125 µM, the MIC ([10]; 48 h) was > 125 µM and the MIC ([11]; 24 h, read-out: MIC SE) was > 500 µM. The MIC ([11]; 48 h, read-out: MIC SE) was > 500 µM, the MIC [12, 31] was > 100 µg/mL and the MIC [13] was ≥ 500 µg/mL. The MIC ([14]; 24 h, read-out: MIC SA) was > 500 µM, the MIC ([14]; 48 h, read-out: MIC SA) was > 500 µM and the MIC ([15]; 24 h, read-out: MIC EF) was > 500 µM. The MIC ([15]; 48 h, read-out: MIC EF) was > 500 µM, the MIC ([16]; CCM8363, 24 h) was > 125 µM and the MIC ([16]; CCM8363, 48 h) was > 125 µM. For the same compound, the IC50 ([17]; HepG2, 24 h) was > 50 µM, the “SI, selectivity index” value [17] was >10.01 and the MIC ([18]; 24h) was > 500 µM. The MIC ([18]; 48h) was > 500 µM, the MIC ([19]; 72 h, read-out: MIC PA) was > 500 µM and the MIC ([19]; 120 h, read-out: MIC PA) was > 500 µM. The MIC ([20]; ATCC204305, 24 h) was > 125 µM, the MIC ([20]; ATCC204305, 48 h) was > 125 µM and the MIC ([21]; 24 h, read-out: MIC EC) was > 500 µM. For the same compound, the MIC ([21]; 48 h, read-out: MIC EC) was > 500 µM, the melting point was 163 to 164 °C and the MIC ([22]; 24 h, read-out: MIC CP) was 125 µM (≈ 39.1 µg/mL). It also gave an MIC ([22]; 48 h, read-out: MIC CP) of 125 µM (≈ 39.1 µg/mL) and an MIC [22, 32] of 125 µM (≈ 39.1 µg/mL).

With `CNC(C)C1CCC(N)C(OC2C(N)CC(N)C(OC3OCC(C)(O)C(NC)C3O)C2O)O1` (stereo not drawn) [gentamicin, reference compound] the MIC ([2]; 48 h, read-out: MIC against Staphylococcus aureus methicillin resistant) was 16 to 32 µg/mL, the MIC ([5]; Klebsiella pneumoniae, ATCC10031|CCM4415, 48 h, read-out: MIC against Klebsiella pneumoniae) was > 8 µg/mL and the MIC ([11]; 48 h, read-out: MIC against Staphylococcus epidermidis) was > 8 µg/mL. It also gave an MIC ([14]; 48 h, read-out: MIC against Staphylococcus aureus) of 1 µg/mL, an MIC ([15]; 48 h, read-out: MIC against Enterococcus faecalis) of 8 µg/mL and an MIC [23] of 2 µg/mL (≈ 4.19 µM). It also gave an MIC ([19]; 48 h, read-out: MIC against Pseudomonas aeruginosa) of 0.5 µg/mL and an MIC ([21]; 48 h, read-out: MIC against Escherichia coli) of 1 to 2 µg/mL.

With `CCCCCCCNc1cnc(C(=O)Nc2ccc(Cl)cc2O)cn1` [Compound 6e, N-(4-chloro-2-hydroxyphenyl)-5-(heptylamino)pyrazine-2-carboxamide] the MIC [1, 29] was ≥ 500 µg/mL, the MIC ([6]; ATCC12478, Middlebrook 7H9 broth pH 6.6, read-out: MIC Mycobacterium kansasii) was 25 µg/mL (≈ 68.9 µM) and the MIC [7, 29] was ≥ 500 µg/mL. The MIC ([12]; ATCC15769, Middlebrook 7H9 broth pH 6.6, read-out: MIC Mycobacterium avium) was > 100 µg/mL, the MIC [13, 29] was ≥ 500 µg/mL and the “Solubility problem in antibacterial/antifungal testing” value [24] was “did not dissolve in DMSO”. For the same compound, the IC50 ([17]; HepG2, 24 h incubation, > means higher concentration not reproducible due to precipitation) was > 25 µM and the melting point was 199.8 to 200.8 °C.
